# In patent US20120046332A1, “COMPOSITIONS AND METHODS FOR TREATING CORNEAL HAZE” (ALLERGAN, INC., priority 2010, published 2012):
# Tests used:
# adult skin fibroblasts [1] = test: myofibroblast transformation assay, Western blot of α-SMA expression; format: cell-based, human; settings: co-treatment with TGF-β1 2 ng/ml for 96 hrs in serum-free medium; EP2 agonist 100 nM, EP4 agonist 10 nM
# Experimental: (§1) To perform the myofibroblast transformation assay, adult skin fibroblasts were cultured until 70% confluent, washed with phosphate buffered saline (PBS), and then starved in serum-free medium for 48 hours. Post starvation, cells were treated with TGF-β1 at 2 ng/ml alone or in combination with Compound V—100 nM, Compound II—10 nM or vehicle for 96 hrs in a fresh serum-free medium (TGF-beta1 from Sigma Aldrich, USA). Cell lysates were collected at the end of the study and Western blot was performed to monitor the expression of alpha-smooth muscle actin (α-SMA), the marker of myofibroblasts.
# Cells were washed with cold PBS three times and lysed with a lysis buffer containing phosphatase inhibitors and proteinase inhibitors (Invitrogen, San Diego, Calif.). Protein level in lysates was quantified (bicinchoninic acid (BCA) protein assay kit, Pierce, USA). For Western blot, an equal amount of protein was applied at each lane, and subjected to electrophoresis. […] Fluorescence signals associated with target proteins were detected upon exposure to fluorescence-sensitive films (Cell signaling Technology, Inc., Berverly, Mass.). […] Beta-actin, a house-keeping gene, was also quantified on the same membrane as an internal control for loading amount. […]
# adult skin fibroblasts [2] = test: myofibroblast transformation, anti-α-SMA immunocytochemistry / morphology; format: cell-based, human; settings: co-treatment with TGF-β1 in serum-free medium; EP2 agonist 100 nM, EP4 agonist 10 nM
# Source text: FIGS. 1A-D show immunohistochemical staining of human adult skin fibroblasts treated with vehicle (FIG. 1A), transforming growth factor beta-1 (TGF-β1; FIG. 1B), TGF-β1+ prostaglandin receptor subtype-4 (EP4) agonist (FIG. 1C), or TGF-β1+ prostaglandin receptor subtype 2 (EP2) agonist (FIG. 1D). TGF-β1 induced transformation of myofibroblasts, which stained green with anti-alpha-smooth muscle actin (α-SMA) immunocytochemistry.
# as §1
# as §1, with “PBS,” for “phosphate buffered saline (PBS),”, “hrs.” for “hours.”, “TGF-beta1” for “TGF-β1”, “III—100” for “V—100”, “I—10” for “II—10”, “(TGF-β1” for “(TGF-beta1”
# Normal skin fibroblasts are slim and spindle-shaped without detectable α-SMA (marker of myofibroblasts), 6 days post culturing in a serum-free medium (FIGS. 1-2).
SMILES,reduction of TGF-β1-induced α-SMA expression (Western blot) (adult skin fibroblasts [1]),cell size (TGF-β1-induced increase) (adult skin fibroblasts [2]),α-SMA positive stress fibers (adult skin fibroblasts [2])
O=C(O)CCCCCCN1C(=O)CC[C@@H]1/C=C/C(O)Cc1ccccc1 (stereo partly drawn) [Compound III],approximately 50%,but not cell size,significantly reduced
CC1(C)C(=O)[C@H](C/C=C\CCCC(=O)O)[C@@H](/C=C/[C@H](O)CCc2sc3ccccc3c2Cl)[C@@H]1O [Compound I],~75%,but not cell size,significantly reduced
